{
  "source": "paper PMC8538957",
  "about": "(Pharmaceutics, 2021)",
  "biological_target": "T1, UGT2B7 (UDP-glycosyltransferase) (Homo sapiens, UniProt P16662)",
  "T1 construct": "human liver microsomes encapsulated in hydrogel (HLM-Gel)",
  "T1 sequence (P16662 24-529)": "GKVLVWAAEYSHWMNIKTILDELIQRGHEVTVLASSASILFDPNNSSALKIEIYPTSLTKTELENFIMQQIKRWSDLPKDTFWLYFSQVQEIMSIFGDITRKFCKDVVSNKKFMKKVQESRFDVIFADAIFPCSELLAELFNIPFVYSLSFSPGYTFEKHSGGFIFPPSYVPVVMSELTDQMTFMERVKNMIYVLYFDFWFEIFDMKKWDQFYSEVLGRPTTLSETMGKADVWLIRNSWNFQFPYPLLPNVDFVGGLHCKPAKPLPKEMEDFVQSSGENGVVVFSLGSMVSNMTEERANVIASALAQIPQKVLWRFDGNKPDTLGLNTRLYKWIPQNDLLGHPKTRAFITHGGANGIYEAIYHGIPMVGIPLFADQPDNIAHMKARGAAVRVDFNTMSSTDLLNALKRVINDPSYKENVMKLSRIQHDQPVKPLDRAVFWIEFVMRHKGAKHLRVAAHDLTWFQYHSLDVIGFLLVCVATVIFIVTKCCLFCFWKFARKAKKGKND",
  "assay": "inhibition of AZT glucuronidation in human liver microsomes in the Bio-PK dynamic system, HPLC, Ki fitted by MATLAB model",
  "assay_type": "biochemical",
  "data": [
    {"smiles": "OC(Cn1cncn1)(Cn1cncn1)c1ccc(F)cc1F", "note": "[FCZ, fluconazole]", "values": [
      {"measurement": "Ki", "result": 14, "unit": "µM"}
    ]}
  ]
}
